{"source": "patent US20190343801A1", "about": "“COMPOSITIONS AND METHODS FOR CONTROLLING NATURAL KILLER CELL ACTIVATION AND FUNCTION” (BAR ILAN UNIVERSITY, priority 2017, published 2019)", "key": {"[1]": {"test_system": "F-actin retrograde flow in YTS and pNK F-tractin GFP cells", "test": "Live cell imaging and kymograph analysis of F-actin retrograde flow (ARF) in F-tractin GFP NK cells", "assay_type": "cell-based", "details": "25 μM Y-27, activating vs. inhibitory NKIS", "from_the_text": "FIGS. […] In FIG. 5A, YTS F-tractin GFP cells were dropped over coverslips coated with anti-CD28 or anti-KIR1 antibodies, and imaged at 1 frame/sec through a single focal plane. […] Representative images are shown. Kymographs of F-actin dynamics were compiled along the contact site radius. […]\nThe y axis represents F-actin velocity (μm/sec), and the x axis—time from initial spreading (sec).\nFIGS. 5E-5H. show analyses of NKIS area and ARF in the activating vs. inhibitory NKIS in the presence of Y-27632 (Y-27) inhibitor of myosin light chain (MLC) phosphorylation and/or JAS. […] NKIS area was determined using ImageJ. […]\nAnalyses of actin and SHP-1 dynamics were performed by preparing kymographs from live cell videos and tracing the movement of the fluorescently tagged proteins. […] Velocity over distance from the center was determined by calculating the velocity of the tracked protein based on the distance traversed to time between each two points on the trace, and noting the relative location from the center of the measured area. […] For each bin, average velocity and standard error were calculated. Average distance traversed over time was calculated by measuring the location of the trace, relative to its point of origin at each time point after the beginning of the trace. For each relative time point from the beginning of a trace, an average distance and standard error were calculated. […]"}, "[2]": {"test_system": "YTS F-tractin GFP cells", "test": "NKIS area of YTS F-tractin GFP cells spread over antibody-coated coverslips", "assay_type": "cell-based", "details": "25 μM Y-27 or 1 μM JAS; anti-CD28 or anti-KIR1", "protocol": "FIGS. 5E-5H. show analyses of NKIS area and ARF in the activating vs. inhibitory NKIS in the presence of Y-27632 (Y-27) inhibitor of myosin light chain (MLC) phosphorylation and/or JAS. In FIG. 5E is live cell imaging of YTS-2DL1 cells expressing F-tractin GFP treated with 25 μM Y-27 (anti-CD28: n=6 movies; anti-KIR1: n=6 movies). […] In FIG. 5F are YTS F-tractin GFP cells treated with 25 μM Y-27 or left untreated. Cells were seeded over coverslips pre-coated with anti-CD28 or anti-KIR1 and allowed to spread at 37° C. for 10 min before fixation, and 1 μM JAS was added 5 min after initial spreading. NKIS area was determined using ImageJ. […]\nChambered cover glasses (LabTek) were cleaned by treatment with 1 M HCl, 70% ethanol for 30 min and dried at 60° C. for 30 min. […] The NK and target cells in the conjugates were distinguished based on fluorescence signal, in which the target cells expressed mCherry and the NK cells expressed various YFP, CFP or GFP tagged proteins. […] The relative fluorescence intensity of the proteins at the synapse was determined by measuring the ratio between fluorescence intensity at the NKIS relative to a non-NKIS site using ImageJ. […]"}}, "note": "Where a name gives a salt, the structure may show the parent alone.", "data": [{"smiles": "C[C@@H](N)C1CCC(C(=O)Nc2ccncc2)CC1", "note": "(stereo partly drawn) [Formula Y-27, 4-[(1R)-1-aminoethyl]-N N-4-pyridinyl-trans-cyclohexanecarboxamide, dihydrochloride]", "values": [{"measurement": "F-actin flow", "setting": "[1]", "result": "complete arrest of F-actin flow"}, {"measurement": "NKIS area / NK contact area", "setting": "[2]", "result": "significantly enlarged NKIS area"}]}]}
